Test results reported in the NIST ThermoML archive (doi:10.1016/j.jct.2005.05.020).
± gives the expanded uncertainty stated by the source.

Conditions: 101.33 kPa, Liquid

Structure (SMILES) | mass density (273.15 K) [kg/m3] | mass density (278.15 K) [kg/m3] | mass density (283.15 K) [kg/m3] | mass density (288.15 K) [kg/m3] | mass density (293.15 K) [kg/m3] | mass density (298.15 K) [kg/m3] | mass density (303.15 K) [kg/m3] | mass density (308.15 K) [kg/m3] | mass density (313.15 K) [kg/m3] | mass density (318.15 K) [kg/m3] | mass density (323.15 K) [kg/m3] | mass density (328.15 K) [kg/m3] | mass density (333.15 K) [kg/m3] | mass density (338.15 K) [kg/m3] | mass density (343.15 K) [kg/m3] | mass density (348.15 K) [kg/m3] | mass density (353.15 K) [kg/m3] | mass density (358.15 K) [kg/m3]
CCCCCCC [heptane] | 700.67 ± 0.62 | 696.57 ± 0.62 | 692.4 ± 0.63 | 688.2 ± 0.64 | 683.99 ± 0.64 | 679.75 ± 0.65 | 675.49 ± 0.66 | 671.19 ± 0.66 | 666.87 ± 0.67 | 662.52 ± 0.68 | 658.13 ± 0.68 | 653.71 ± 0.69 | 649.24 ± 0.7 | 644.74 ± 0.71 | 640.19 ± 0.71 | 635.6 ± 0.72 | 630.95 ± 0.73 | 626.26 ± 0.74
CCCCCC [hexane] | 677.18 ± 0.66 | 672.79 ± 0.67 | 668.37 ± 0.67 | 663.91 ± 0.68 | 659.42 ± 0.69 | 654.89 ± 0.69 | 650.33 ± 0.7 | 645.73 ± 0.71 | 641.08 ± 0.72 | 636.38 ± 0.72 | 631.64 ± 0.73 | 626.84 ± 0.74 | 621.99 ± 0.75 | 617.07 ± 0.75 | – | – | – | –
CCCCC [pentane] | 645.5 ± 0.72 | 640.7 ± 0.72 | 635.9 ± 0.73 | 631.04 ± 0.74 | 626.12 ± 0.74 | 621.14 ± 0.75 | 616.11 ± 0.76 | 611.01 ± 0.77 | – | – | – | – | – | – | – | – | – | –
